These results are taken from patent US20240343755A1, “STABLE ISOQUINOLINE-CORTICOSTEROID CONJUGATES AND USES THEREOF” (priority 2021, published 2024).

Data set [1] has as its target Rho-associated protein kinase 2 (ROCK2) (Homo sapiens, UniProt O75116). The data set is described as follows: In vitro ROCKi activity, ROCK2. The data set is classed as biochemical. The method, then:
(§1) Activities of certain compounds and components of compounds described herein were assayed. […] Rho-associated protein kinase 2=ROCK2; Rho-associated protein kinase 1=ROCK1; Porcine Trabecular Meshwork cells=PTM; Human Trabecular Meshwork cells=HTM; Splenic Interleukin-23=SPNL IL23; and Tumor Necrosis Factor α=TNFα.

Data set [2] addresses Rho-associated protein kinase 1 (ROCK1) (Homo sapiens, UniProt Q13464). The data set is described as follows: In vitro ROCKi activity, ROCK1. Format: biochemical. The procedure:
as §1

The subject of data set [3] is Porcine Trabecular Meshwork cells. The data set is described as follows: Activity in Porcine Trabecular Meshwork cells (PTM). Format: cell-based. The note with it: Sus scrofa. The method, then:
as §1

In data set [4] the test system is Human Trabecular Meshwork cells. As to the kind of experiment: Activity in Human Trabecular Meshwork cells (HTM). Format: cell-based. The procedure: as §1
In another data set the test system is Splenic Interleukin-23. The data set is described as follows: In vitro steroid activity, splenic IL-23. Format: cell-based. Particulars: read-out: IC50 (nM) SPLN IL23. The procedure:
(§2) Activities of certain compounds and components of compounds described herein were assayed. […] Rho-associated protein kinase 2=ROCK2; […] Porcine Trabecular Meshwork cells=PTM; Human Trabecular Meshwork cells=HTM; Splenic Interleukin-23=SPNL IL23; and Tumor Necrosis Factor α=TNFα.

Another data set relates to Tumor Necrosis Factor α. As to the kind of experiment: In vitro steroid activity, TNFα. The data set is classed as cell-based. Particulars: read-out: IC50 (nM) TNFα. The procedure: as §2
The test system of data set [5] is Allergic Eye Disease (AED) in wildtype C57Bl/6 mice. As to the kind of experiment: Chronic/severe allergic eye disease (AED) model, Meibomian gland dysfunction. Format: in vivo. The note with it: 0.1% E5 in SBEβCD, topical BID 5 uL. The procedure:
E5 was formulated in 5% sulfobutylether-β-cyclodextrin (SBEβCD), 10 mM PBS (0.1% NaCl) solution, pH 6 and filtered with a 0.2 μm PVDF filter. AED was induced in wildtype C57Bl/6 mice. Animals were immunized with one intraperitoneal (i.p) injection of 100 μg of OVA (InvivoGen) in 300 ng of pertussis toxin (List Biologicals) and 4 mg of aluminum hydroxide (Alum, Thermo Fisher Scientific Pierce) on Day 0. Two weeks later, mice were treated topically QD with 5 μL OVA (50 μg/μL) in sterile saline for 5 days. Mice were treated topically BID with 5 uL of vehicle (10% SBEβCD), Lotemax® (Bausch & Lomb; loteprednol etabonate ophthalmic gel 0.5%) or 0.1% E5 in SBEβCD (50:1). The first treatment was administered on Day 14 (2 weeks after initial immunization), 10 minutes prior to OVA instillation followed by a second dose >7 hrs thereafter.
Assessment was carried out following euthanasia. All four lids were gently inverted under a dissection microscope to expose the posterior lid margin. The number of plugs on the upper and lower eyelids are analyzed and scored for severity as follows: 0 indicates no plug, 1+ indicates appearance of plug. 2+ is assigned to a plug that obstructs the entire MG (Meibomian gland) orifice, 3+ is a plug with a dome that rises above the plane of the eyelid margin, and a 4 is given to a plug that covers a larger surface than the MG orifice (usually with irregular circumference edges).
Clinical parameters including eyelid edema, chemosis, conjunctival redness, and tearing were each scored on a scale of 0-3+. A score of 0 indicated no evidence of the respective parameter, 1+ is assigned if the response is mild, but distinctly greater than the naive controls; 2+ for a moderate change in the respective parameters that could be noted by slit-lamp microscopy, but not with naked eye; and 3+ if the response is severe enough that could be perceived with naked eye.
Results are shown in FIG. 9, FIG. 10, and FIG. 11.

Data set [6] relates to corneal epithelium debridement in C57/B1/6 mice. As to the kind of experiment: In vivo PK/PD ocular surface corneal wound healing model. The note with it: 0.1% E5 in SBEβCD. The method, then: E5 was formulated in 3.5% sulfobutylether-β-cyclodextrin (SBEβCD), 10 mM PBS, pH 6 and filtered with a 0.2 μm PVDF filter.
Anesthetized animals (8-10 weeks old male C57/B1/6 mice) were placed under a dissecting microscope and eyes proposed. Corneas of OD eyes were demarcated by centrally, and softly, marking the perimeters of the debridement area with a 2 mm trephine. A 10 μL drop of PBS was placed on the eye and an Algerbrush with a 0.5 mm burr attachment was utilized to carefully remove the epithelium within the demarcated area of the cornea. Topical fluorescein (Sigma) was applied, and excess fluorescein flushed prior to capture of a baseline image of the wound (time=0). Topical treatments were administered at t=0 and t=6 hours post-injury by applying 5 µL to the surface of the debrided eye. Fluorescein-stained corneas were imaged again 24 h after injury. Percent re-epithelialization was assessed by analysis of imaged corneas with Image J (NIH, Bethesda, MD).
0.1% dexamethasone and 0.5% loteprednol were used as positive clinically relevant controls.

Data set [7] relates to intraocular pressure in normotensive Dutch Belted rabbits. The data set is described as follows: Intraocular pressure study in normotensive Dutch Belted rabbits. The data set is classed as in vivo. Particulars: single dose E5 0.1% or 0.25%. The procedure:
E5 was formulated in 3.5% or 6.5% sulfobutylether-β-cyclodextrin (SBEβCD), 10 mM PBS, pH 6 and filtered with a 0.2 μm PVDF filter. A single dose was administered and the intraocular pressure was measured, e.g., with a pneumatonometer, for 32 hours post-dose.

Where a name gives a salt, the structure may show the parent alone. Read-outs that look alike come from different tables or passages of the source.

Rho-associated protein kinase 2 (ROCK2), sequence (O75116 whole entry, species assumed): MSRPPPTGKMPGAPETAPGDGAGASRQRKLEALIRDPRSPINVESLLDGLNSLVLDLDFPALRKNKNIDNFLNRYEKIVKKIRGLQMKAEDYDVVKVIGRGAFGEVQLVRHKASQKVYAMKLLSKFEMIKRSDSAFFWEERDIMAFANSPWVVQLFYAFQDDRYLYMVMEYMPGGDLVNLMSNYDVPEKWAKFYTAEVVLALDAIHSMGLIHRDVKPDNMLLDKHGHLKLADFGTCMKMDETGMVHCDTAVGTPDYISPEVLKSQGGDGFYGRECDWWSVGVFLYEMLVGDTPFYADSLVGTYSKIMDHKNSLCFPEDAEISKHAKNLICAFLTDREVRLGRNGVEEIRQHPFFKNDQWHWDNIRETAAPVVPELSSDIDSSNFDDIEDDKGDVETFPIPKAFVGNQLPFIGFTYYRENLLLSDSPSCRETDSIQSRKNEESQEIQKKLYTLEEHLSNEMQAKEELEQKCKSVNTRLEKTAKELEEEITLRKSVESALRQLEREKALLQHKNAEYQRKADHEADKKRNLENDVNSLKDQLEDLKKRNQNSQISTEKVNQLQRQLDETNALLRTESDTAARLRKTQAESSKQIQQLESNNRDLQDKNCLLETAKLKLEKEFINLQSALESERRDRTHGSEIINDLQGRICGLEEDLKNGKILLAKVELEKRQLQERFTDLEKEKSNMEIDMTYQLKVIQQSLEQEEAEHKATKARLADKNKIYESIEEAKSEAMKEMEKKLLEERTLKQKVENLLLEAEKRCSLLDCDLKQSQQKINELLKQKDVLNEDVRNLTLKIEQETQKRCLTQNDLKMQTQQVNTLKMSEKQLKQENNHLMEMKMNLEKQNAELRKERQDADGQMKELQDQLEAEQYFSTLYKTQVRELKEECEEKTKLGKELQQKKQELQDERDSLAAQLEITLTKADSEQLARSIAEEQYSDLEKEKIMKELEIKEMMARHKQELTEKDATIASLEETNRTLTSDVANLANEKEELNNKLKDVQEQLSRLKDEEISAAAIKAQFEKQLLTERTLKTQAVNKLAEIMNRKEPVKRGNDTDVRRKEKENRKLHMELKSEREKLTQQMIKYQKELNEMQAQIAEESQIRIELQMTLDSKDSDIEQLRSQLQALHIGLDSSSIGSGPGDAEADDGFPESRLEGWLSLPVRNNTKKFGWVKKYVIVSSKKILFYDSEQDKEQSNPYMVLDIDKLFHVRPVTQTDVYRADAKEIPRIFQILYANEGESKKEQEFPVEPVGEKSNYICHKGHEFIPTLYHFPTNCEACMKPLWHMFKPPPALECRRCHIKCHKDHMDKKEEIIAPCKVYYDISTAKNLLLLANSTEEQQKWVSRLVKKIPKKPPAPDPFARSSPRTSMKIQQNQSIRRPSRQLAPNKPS
Rho-associated protein kinase 1 (ROCK1), sequence (Q13464 whole entry, species assumed): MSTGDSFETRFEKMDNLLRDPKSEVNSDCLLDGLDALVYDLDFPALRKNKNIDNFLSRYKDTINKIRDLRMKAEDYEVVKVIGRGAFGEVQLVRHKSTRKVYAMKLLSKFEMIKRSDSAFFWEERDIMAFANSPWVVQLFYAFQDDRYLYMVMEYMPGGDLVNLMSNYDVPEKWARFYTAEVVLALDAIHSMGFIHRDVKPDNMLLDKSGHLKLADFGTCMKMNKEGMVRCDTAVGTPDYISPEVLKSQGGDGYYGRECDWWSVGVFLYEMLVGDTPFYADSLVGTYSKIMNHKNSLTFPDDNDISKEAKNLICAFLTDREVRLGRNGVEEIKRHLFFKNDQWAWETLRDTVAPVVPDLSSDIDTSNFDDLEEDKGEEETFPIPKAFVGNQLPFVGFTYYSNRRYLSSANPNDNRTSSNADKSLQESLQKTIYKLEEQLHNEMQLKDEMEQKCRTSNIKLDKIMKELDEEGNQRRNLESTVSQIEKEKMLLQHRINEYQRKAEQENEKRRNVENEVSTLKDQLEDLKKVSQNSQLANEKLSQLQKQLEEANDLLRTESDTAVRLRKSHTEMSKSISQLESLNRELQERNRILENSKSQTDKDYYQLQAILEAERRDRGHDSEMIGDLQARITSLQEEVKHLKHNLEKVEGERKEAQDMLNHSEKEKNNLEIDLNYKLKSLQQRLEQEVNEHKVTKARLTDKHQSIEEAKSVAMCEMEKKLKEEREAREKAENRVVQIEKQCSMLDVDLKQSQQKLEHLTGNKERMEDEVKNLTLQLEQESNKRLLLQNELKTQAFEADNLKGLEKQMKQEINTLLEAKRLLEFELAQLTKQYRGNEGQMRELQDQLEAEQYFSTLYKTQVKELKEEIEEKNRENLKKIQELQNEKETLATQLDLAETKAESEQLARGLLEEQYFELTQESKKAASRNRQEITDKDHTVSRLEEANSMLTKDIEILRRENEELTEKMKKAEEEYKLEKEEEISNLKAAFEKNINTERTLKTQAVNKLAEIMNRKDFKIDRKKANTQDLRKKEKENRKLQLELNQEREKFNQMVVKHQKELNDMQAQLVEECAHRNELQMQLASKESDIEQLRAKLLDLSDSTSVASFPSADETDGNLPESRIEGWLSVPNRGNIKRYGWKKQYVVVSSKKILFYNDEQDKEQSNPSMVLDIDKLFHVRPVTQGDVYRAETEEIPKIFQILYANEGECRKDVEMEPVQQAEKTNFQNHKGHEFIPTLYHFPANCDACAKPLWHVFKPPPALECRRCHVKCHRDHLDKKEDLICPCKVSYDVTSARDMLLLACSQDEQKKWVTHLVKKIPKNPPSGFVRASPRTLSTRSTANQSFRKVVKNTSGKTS

`NC[C@@H](C(=O)Nc1ccc2cnccc2c1)c1ccc(CO)cc1` [A, reference compound]: the half-inhibitory concentration (IC50) is 0.99 nM in data set [1], 1.7 nM in data set [2], 13 nM in data set [3] and 5 nM in [4].
Take `C[C@@H]1C[C@H]2[C@@H]3CCC4=CC(=O)C=C[C@]4(C)[C@@]3(F)[C@@H](O)C[C@]2(C)[C@@]1(O)C(=O)CO` [B, Dexamethasone, reference compound]: the concentration for half-maximal inhibition (IC50) in data set [3] was at least 3000 nM; in data set [4] it was at least 3000 nM; in the data set with Splenic Interleukin-23 (Splenic Interleukin-23), 4.6 nM; in the data set with Tumor Necrosis Factor α, 47 nM.
`CC1(C)O[C@@H]2C[C@H]3[C@@H]4CCC5=CC(=O)C=C[C@]5(C)[C@@]4(F)[C@@H](O)C[C@]3(C)[C@]2(C(=O)CO)O1` [C, Triamcinolone, reference compound]: the IC50 in the data set on Splenic Interleukin-23 (Splenic Interleukin-23) amounted to 0.93 nM; in the data set with Tumor Necrosis Factor α it was 0.51 nM.
Take `CC1(C)O[C@@H]2C[C@H]3[C@@H]4CCC5=CC(=O)C=C[C@]5(C)[C@@]4(F)[C@@H](O)C[C@]3(C)[C@]2(C(=O)COC(=O)CCCC(=O)OCc2ccc([C@@H](CN)C(=O)Nc3ccc4cnccc4c3)cc2)O1` [Example E5, 4-((S)-3-amino-1-(isoquinolin-6-ylamino)-1-oxopropan-2-yl)benzyl (2-((6aS,6bR,7S,8aS,8bS,11aR,12aS,12bS)-6b-fluoro-7-hydroxy-6a,8a,10,10-tetramethyl-4-oxo-1,2,4,6a,6b,7,8,8a,11a,12,12a,12b-dodecahydro-8bH-naphtho[2′,1′:4,5]indeno[1,2-d][1,3]dioxol-8b-yl)-2-oxoethyl) glutarate dihydrochloride]: the IC50 in data set [1] (read-out: IC50 (nM) ROCK2) is 9 nM; in [2], 9 nM; in data set [3] it was 55 nM; in the data set with Splenic Interleukin-23 it was 1 nM; in the data set on Tumor Necrosis Factor α, 10 nM. Further, in data set [5] (FIG. 10), the “Meibomian gland orifice plugging (number and severity of MG plugs)” value was “effective in lowering both the number and severity of the MG plugs compared to both vehicle and loteprednol”. Also, in data set [5] (FIG. 11), the “neutrophil levels in Meibomian gland and conjunctiva” value was “reduced the number of neutrophils in the Meibomian gland and conjunctiva”. Further, the “clinical scoring (eyelid edema, chemosis, conjunctival redness, tearing)” value in data set [5] (better than loteprednol gel, significance on day 4, FIG. 9) was “statistically significantly improved compared to vehicle”. In [6] (24 h after epithelium debridement, FIG. 12), the “re-epithelialization (recovery of epithelium)” value is recorded as “did not affect the recovery of epithelium”. Besides, the “myeloperoxidase (MPO) levels (eye surface inflammation)” value in data set [6] (topical 5 µL at t=0 and t=6 hours post-injury, FIG. 13) was “significantly reduced the cornea inflammation in comparison to PBS (phosphate-buffered saline) vehicle and loteprednol groups”. In addition, the hyperemia result in data set [7] (Dutch belted rabbits) is recorded as “no hyperemia observed”. The “intraocular pressure (IOP)” value in data set [7] (measured for 32 hours post-dose, FIG. 14, FIG. 15) is reported as “lowered IOP in a dose-dependent manner”.
As to `C[C@@H]1C[C@H]2[C@@H]3CCC4=CC(=O)C=C[C@]4(C)[C@@]3(F)[C@@H](O)C[C@]2(C)[C@@]1(O)C(=O)COC(=O)CCCC(=O)OCc1ccc([C@@H](CN)C(=O)Nc2ccc3cnccc3c2)cc1` [Example E15], the IC50 came out at 4 nM in [1] (read-out: IC50 (nM) ROCK2); 7 nM in data set [2]; 40 nM in data set [3]; 12 nM in the data set with Splenic Interleukin-23 (Splenic Interleukin-23); 147 nM in the data set with Tumor Necrosis Factor α.
